# Experimental data taken from PMC11645656, “MRGPRX4 mediates phospho-drug associated pruritus in a humanized mouse model” (Science translational medicine, 2024).
# pEC50: −log10 of the molar value. Where “and” joins values, the source holds several entries; their conditions need not be identical. Equal values may be shown once.
# What was measured:
# [1] = ref ClinicalTrials.gov Identifier: NCT00327392; cited from earlier work
# MRGPRX4 WT (S83) = MRGPRX4 WT (S83) (Homo sapiens, UniProt Q96LA9, L83S); experiment: PRESTO-Tango β-arrestin recruitment assay, HTLA cells stably expressing WT (S83) MRGPRX4; type: cell-based; set-up: expressed in transfected cells; conditions: for PRESTO-Tango response (fig. S1), single replicate: HTLA::MRGPRX4; for fig. S7 response (raw signal), concentration-response: WT, single replicate
# NP2-WT mice = experiment: Itch behavioral study (scratching bouts after subcutaneous nape injection) in littermate control NP2-WT mice; type: in vivo; conditions: 30 min after injection of 50 μl 10 mM into the nape, each cell one mouse
# MRGPRX4 (S83) = target: T1, MRGPRX4 (S83) (Homo sapiens, UniProt Q96LA9, L83S); experiment: EC50 determination, intracellular calcium mobilization in MRGPRX4 stably expressed HEK293 cells (FLIPR Calcium 5, Flexstation-3); type: cell-based; conditions: for Fig. 1D dose-response, calcium response at Concentration (M): individual replicate values
# T1 construct: expressed in transfected cells
# In short: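 EC50 came from a four-parameter logistic fit to averaged triplicate responses, each response being maximum post-stimulation signal less baseline. Intracellular calcium was monitored with Calcium 5 dye in HBSS with 20 mM HEPES, pH 7.4, after 1 h dye loading at 37 °C, using stably transfected HEK293 cells and parental controls.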
# Chain of MRGPRX4 WT (S83) (Q96LA9 whole entry L83S): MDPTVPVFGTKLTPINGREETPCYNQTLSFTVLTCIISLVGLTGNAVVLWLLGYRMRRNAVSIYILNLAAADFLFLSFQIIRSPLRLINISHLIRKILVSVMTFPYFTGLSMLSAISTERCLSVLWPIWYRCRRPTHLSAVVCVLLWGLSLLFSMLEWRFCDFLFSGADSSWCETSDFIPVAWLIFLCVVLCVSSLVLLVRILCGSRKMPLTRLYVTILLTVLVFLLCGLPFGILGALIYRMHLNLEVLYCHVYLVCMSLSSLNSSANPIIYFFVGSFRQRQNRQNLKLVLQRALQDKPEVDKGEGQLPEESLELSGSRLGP
# T1 sequence (Q96LA9 whole entry L83S): as above
structure (smiles),measurement,setting,value
CC(C)c1cccc(C(C)C)c1OCOP(=O)(O)O [Fospropofol],Patients who reported paresthesia,[1],53.6%
same,Patients who reported pruritus,[1],26.0%
same,"PRESTO-Tango response (fig. S1), single replicate",MRGPRX4 WT (S83); concentration 1.95e-9 M,0.05347 and 0.06522 and 0.05931 and 0.2207 and 0.1773 and 0.1674 and 0.1338 and 0.1758 and 0.0967
same,"PRESTO-Tango response (fig. S1), single replicate",MRGPRX4 WT (S83); concentration 3.91e-9 M,0.1053 and 0.08982 and 0.09599 and 0.3062 and 0.2141 and 0.1584 and 0.1973 and 0.1505 and 0.1812
same,"PRESTO-Tango response (fig. S1), single replicate",MRGPRX4 WT (S83); concentration 7.81e-9 M,0.09268 and 0.116 and 0.1017 and 0.3688 and 0.253 and 0.2802 and 0.1468 and 0.2156 and 0.1585
same,"PRESTO-Tango response (fig. S1), single replicate",MRGPRX4 WT (S83); concentration 1.56e-8 M,0.2132 and 0.2887 and 0.213 and 0.6375 and 0.7915 and 0.6641 and 0.3649 and 0.3666 and 0.1947
same,"PRESTO-Tango response (fig. S1), single replicate",MRGPRX4 WT (S83); concentration 3.13e-8 M,0.293 and 0.3131 and 0.2408 and 1.844 and 1.563 and 1.804 and 0.7421 and 0.6696 and 0.4151
same,"PRESTO-Tango response (fig. S1), single replicate",MRGPRX4 WT (S83); concentration 6.25e-8 M,0.5602 and 0.5719 and 0.4853 and 3.825 and 3.698 and 3.023 and 1.231 and 1.143 and 1.136
same,"PRESTO-Tango response (fig. S1), single replicate",MRGPRX4 WT (S83); concentration 1.25e-7 M,0.9649 and 0.9632 and 0.8205 and 5.958 and 5.765 and 4.1962 and 2.249 and 2.15 and 1.832
same,"PRESTO-Tango response (fig. S1), single replicate",MRGPRX4 WT (S83); concentration 2.5e-7 M,1.521 and 1.3 and 1.661 and 7.755 and 5.82 and 6.8361 and 3.176 and 3.046 and 2.687
same,"PRESTO-Tango response (fig. S1), single replicate",MRGPRX4 WT (S83); concentration 5e-7 M,1.9 and 1.632 and 1.827 and 8.423 and 7.014 and 7.51 and 3.752 and 3.569 and 3.3596
same,"PRESTO-Tango response (fig. S1), single replicate",MRGPRX4 WT (S83); concentration 1e-6 M,2.509 and 2.322 and 1.947 and 8.611 and 7.367 and 6.973 and 3.852 and 4.064 and 3.742
same,"PRESTO-Tango response (fig. S1), single replicate",MRGPRX4 WT (S83); concentration 2e-6 M,2.446 and 2.467 and 2.134 and 8.437 and 7.773 and 6.136 and 3.188 and 3.088 and 4.194
same,"fig. S7 response (raw signal), concentration-response",MRGPRX4 WT (S83); 1.95e-9 M,16738 and 13375 and 17578.5 and 9669.59 and 5346.95 and 6521.98 and 5931.28 and 22070.2 and 17734.5
same,"fig. S7 response (raw signal), concentration-response",MRGPRX4 WT (S83); 3.91e-9 M,15842.1 and 19726.2 and 15050.8 and 18116.6 and 10530.6 and 8981.76 and 9599.26 and 30619.8 and 21413.5
same,"fig. S7 response (raw signal), concentration-response",MRGPRX4 WT (S83); 7.81e-9 M,28015.3 and 14682.6 and 21560.1 and 15853.2 and 9267.54 and 11599.7 and 10170.8 and 36884.4 and 25297.6
same,"fig. S7 response (raw signal), concentration-response",MRGPRX4 WT (S83); 1.56e-8 M,66409.6 and 36485.8 and 36662.8 and 19473.7 and 21324 and 28869.2 and 21303.6 and 63745.9 and 79152.7
same,"fig. S7 response (raw signal), concentration-response",MRGPRX4 WT (S83); 3.13e-8 M,180426 and 74208.2 and 66960.2 and 41510.5 and 29299.2 and 31309.9 and 24081.1 and 184359 and 156258
same,"fig. S7 response (raw signal), concentration-response",MRGPRX4 WT (S83); 6.25e-8 M,302326 and 123092 and 114256 and 113554 and 56022.5 and 57189.8 and 48533.4 and 382536 and 369774
same,"fig. S7 response (raw signal), concentration-response",MRGPRX4 WT (S83); 1.25e-7 M,419620 and 224898 and 215037 and 183215 and 96490.1 and 96321.7 and 82049.1 and 595774 and 576456
same,"fig. S7 response (raw signal), concentration-response",MRGPRX4 WT (S83); 2.5e-7 M,683610 and 317574 and 304633 and 268745 and 152100 and 129974 and 166066 and 775519 and 581976
same,"fig. S7 response (raw signal), concentration-response",MRGPRX4 WT (S83); 5e-7 M,751045 and 375202 and 356942 and 335960 and 190041 and 163176 and 182733 and 842325 and 701403
same,"fig. S7 response (raw signal), concentration-response",MRGPRX4 WT (S83); 1e-6 M,697307 and 385223 and 406436 and 374152 and 250882 and 232214 and 194658 and 861126 and 736707
same,"fig. S7 response (raw signal), concentration-response",MRGPRX4 WT (S83); 2e-6 M,613596 and 318811 and 308756 and 419448 and 244609 and 246673 and 213444 and 843724 and 777268
same,Scratching bouts of individual animals,NP2-WT mice,2 and 38 and 3 and 10 and 15 and 17 and 76 and 40 and 18 and 43
same,pEC50,MRGPRX4 (S83),8.42
same,"Fig. 1D dose-response, calcium response at Concentration (M)",MRGPRX4 (S83); 390.6 pM,1.887 and 7.675 and 17.3467 and 28.1293 and 25.4823 and 35.7983 and -3.6673 and 11.7957 and 11.3767
same,"Fig. 1D dose-response, calcium response at Concentration (M)",MRGPRX4 (S83); 781.2 pM,26.5827 and 9.949 and 22.6817 and 47.5243 and 43.9493 and 46.7693 and 30.8217 and 49.6317 and 45.8127
same,"Fig. 1D dose-response, calcium response at Concentration (M)",MRGPRX4 (S83); 1.5625e-9 M,74.3117 and 80.9857 and 81.1437 and 128.989 and 99.4103 and 141.332 and 62.3957 and 66.3277 and 70.4507
same,"Fig. 1D dose-response, calcium response at Concentration (M)",MRGPRX4 (S83); 3.125e-9 M,97.9827 and 97.6007 and 113.013 and 161.554 and 132.577 and 128.455 and 112.923 and 102.472 and 92.5087
same,"Fig. 1D dose-response, calcium response at Concentration (M)",MRGPRX4 (S83); 6.25e-9 M,129.465 and 134.099 and 141.914 and 173.201 and 168.912 and 206.791 and 144.704 and 134.885 and 117.377
same,"Fig. 1D dose-response, calcium response at Concentration (M)",MRGPRX4 (S83); 1.25e-8 M,164.422 and 179.515 and 157.084 and 234.098 and 206.128 and 222.155 and 172.571 and 101.371 and 130.276
same,"Fig. 1D dose-response, calcium response at Concentration (M)",MRGPRX4 (S83); 2.5e-8 M,193.287 and 213.245 and 222.211 and 313.329 and 290.374 and 297.501 and 184.525 and 188.459 and 188.843
same,"Fig. 1D dose-response, calcium response at Concentration (M)",MRGPRX4 (S83); 5e-8 M,209.793 and 233.98 and 204.052 and 317.065 and 340.21 and 331.701 and 193.877 and 181.409 and 188.341
same,"Fig. 1D dose-response, calcium response at Concentration (M)",MRGPRX4 (S83); 1e-7 M,231.301 and 222.41 and 222.053 and 368.09 and 352.14 and 353.772 and 173.973 and 182.603 and 208.392
same,"Fig. 1D dose-response, calcium response at Concentration (M)",MRGPRX4 (S83); 2e-7 M,241.094 and 221.904 and 183.593 and 346.939 and 358.59 and 369.748 and 151.356 and 187.22 and 148.627
same,MRGPRX4 agonist activity / calcium signaling,MRGPRX4 (S83); MRGPRX4-expressing HEK293 cells,potent agonist of MRGPRX4
same,Hill coefficient,"MRGPRX4 (S83); dose-response curve fitting, table S1",0.800
